Results: article PMC11239005, “Preclinical studies of RA475, a guanidine-substituted spirocyclic candidate RPN13/ADRM1 inhibitor for treatment of ovarian cancer” (PLOS ONE, 2024)
Like-named read-outs stand apart in the source and are kept apart here.

What was measured:
hERG potassium channel = hERG potassium channel (Homo sapiens, UniProt Q12809); test: hERG Thallium Flux FLIPR-Based Assay
Protocol: Supplementary file pone.0305710.s008.tif: S8 Fig hERG inhibition in vitro. […] Concentration range of 0.023–50 μM (8 points, 3-fold serial dilutions) B) Dose-response curve for RA475. Concentration range of 0.045–100 μM (8 points, 3-fold serial dilutions). C) Dose-response curve for Up284. Concentration range of 0.045–100 μM (8 points, 3-fold serial dilutions). (TIF)

HCC1395 = test: MTT cytotoxicity assay, HCC1395; type: cell-based; details: Homo sapiens, HCC1395, 72 h
Protocol: (§1) All cell lines were obtained from the American Type Culture Collection (ATCC) and cultured in the specified medium supplemented with 10% fetal bovine serum, 100 IU/mL penicillin, and 100 μg/mL streptomycin at 37°C in a humidified 5% CO2/95% air incubator. Synthesis of new compounds is described in S1 File, and >95% purity of RA475, Up284 and its analogs were confirmed by NMR and MS. To assess drug cytotoxicity, cells were seeded at 2,500 cells/well (10,000 cells/well for MM lines) in 100 μL medium in 96-well plate as triplicates and after 24 h treated with compounds for a further 72 h. To assess cytotoxicity, the cells were incubated for 2 h at 37°C according to the manufacturer’s protocol with the Thiazolyl Blue Tetrazolium Bromide (20 μL/well of 5 mg/mL stock solution in water) (Sigma, M5655) and A570 measured using a Benchmark Plus microplate spectrophotometer (BIO-RAD). IC50 was estimated using Graphpad Prism 7 software.

SKOV3 = test: MTT cytotoxicity assay, SKOV3; type: cell-based; details: Homo sapiens, SK-OV-3, SKOV3, 72 h
Protocol: as §1

LaPC4 = test: MTT cytotoxicity assay, LaPC4; type: cell-based; details: Homo sapiens, LaPC4, 72 h
Protocol: as §1

[1] = system: cancer lines in S1B Table; test: MTT cytotoxicity, summary over cell line panel; type: cell-based; details: for IC50: 72 h, read-out: mean IC50 across all cancer lines in S1B Table
Protocol: as §1
Modifications of Up284 were sought to improve its drug-like properties without significant compromise of its activity in vivo, and several new compounds were synthesized (S1 File). Based on our prior studies of its pharmacophore, the central ring nitrogen was the most logical for addition of charged moieties, including RA475 and RA484. We also examined a change to either 3,4 spiro rings (RA477, RA479), or addition of 3-Fluoro substitutions (RA482) (S1 File). Our focus is developing iRPN13 to treat ovarian cancer resistant to standard of care drug regimens.
We elected to focus on RA475 and expanded the analysis in a larger panel of cell lines including those from common cancer types and normal tissues. […] This panel included another pair of cell lines isolated from another ovarian cancer patient with drug-resistant disease (PEO4) and pre-treatment (PEO1), and both were similarly sensitive to RA475.

PEO23 = test: MTT cytotoxicity assay, PEO23; type: cell-based; details: PEO23, 72 h
Protocol: as §1

HCT116 = test: MTT cytotoxicity assay, HCT116; type: cell-based; details: Homo sapiens, HCT-116, HCT116, 72 h
Protocol: as §1

HCC1806 = test: MTT cytotoxicity assay, HCC1806; type: cell-based; details: Homo sapiens, HCC1806, 72 h
Protocol: as §1

GSH reactivity assay = type: physicochemical; details: for Average Area Ratio Normalized: with GSH divided by without GSH; for remaining at 1.5 h, 20 μM: pH 7.4
Protocol: Test compounds (20 μM, final organic solvent concentration 10%) were incubated with 1 mM GSH in phosphate buffer (100 mM), pH 7.4 at 37°C, shaking at 300 rpm. In the control reactions (“without GSH”), the GSH was substituted with phosphate buffer. Five time points over 1.5 h were analyzed (0, 0.33, 0.66, 1 and 1.5 h). The reactions were stopped by adding 50 μL aliquots of the reaction mixture to 9 volumes of methanol: water: formic acid (10:10:0.04) with internal standard (IS). Samples were analyzed using HPLC system coupled with a tandem mass spectrometer. Average (triplicate) area ratios were calculated. GSH reactivity was calculated taking into account the possible instability of the compound during incubation. All calculations were performed using normalized data obtained by dividing the average area ratio of the test compound incubated with GSH by the average area ratio of the test compound incubated without GSH. Natural logarithms of the results were fitted to linear regression, and half-life (t1/2) was calculated as: t1/2=ln2/-slope

MDA-MB-468 = test: MTT cytotoxicity assay, MDA-MB-468; type: cell-based; details: Homo sapiens, MDA-MB-468, 72 h
Protocol: as §1

HepG2 = test: MTT cytotoxicity assay, HepG2; type: cell-based; details: Homo sapiens, HepG2, 72 h
Protocol: as §1

B6-Ova = test: MTT cytotoxicity assay, B6-Ova; type: cell-based; details: 72 h
Protocol: as §1

[2] = 0 h, 1 mM GSH, 20 μM compound, pH 7.4, 37°C
[3] = 1 mM GSH in phosphate buffer, 1.5 h, read-out: % Remaining with GSH, normalized
[4] = 1 mM GSH in phosphate buffer, 1 mM GSH, pH 7.4, 37°C, read-out: t1/2 with GSH, normalized (converted)
[5] = phosphate buffer, pH 7.4, 37°C, read-out: t1/2 w/o GSH
[6] = phosphate buffer, 1.5 h, read-out: % Remaining w/o GSH

Sequence of hERG potassium channel (Q12809 whole entry): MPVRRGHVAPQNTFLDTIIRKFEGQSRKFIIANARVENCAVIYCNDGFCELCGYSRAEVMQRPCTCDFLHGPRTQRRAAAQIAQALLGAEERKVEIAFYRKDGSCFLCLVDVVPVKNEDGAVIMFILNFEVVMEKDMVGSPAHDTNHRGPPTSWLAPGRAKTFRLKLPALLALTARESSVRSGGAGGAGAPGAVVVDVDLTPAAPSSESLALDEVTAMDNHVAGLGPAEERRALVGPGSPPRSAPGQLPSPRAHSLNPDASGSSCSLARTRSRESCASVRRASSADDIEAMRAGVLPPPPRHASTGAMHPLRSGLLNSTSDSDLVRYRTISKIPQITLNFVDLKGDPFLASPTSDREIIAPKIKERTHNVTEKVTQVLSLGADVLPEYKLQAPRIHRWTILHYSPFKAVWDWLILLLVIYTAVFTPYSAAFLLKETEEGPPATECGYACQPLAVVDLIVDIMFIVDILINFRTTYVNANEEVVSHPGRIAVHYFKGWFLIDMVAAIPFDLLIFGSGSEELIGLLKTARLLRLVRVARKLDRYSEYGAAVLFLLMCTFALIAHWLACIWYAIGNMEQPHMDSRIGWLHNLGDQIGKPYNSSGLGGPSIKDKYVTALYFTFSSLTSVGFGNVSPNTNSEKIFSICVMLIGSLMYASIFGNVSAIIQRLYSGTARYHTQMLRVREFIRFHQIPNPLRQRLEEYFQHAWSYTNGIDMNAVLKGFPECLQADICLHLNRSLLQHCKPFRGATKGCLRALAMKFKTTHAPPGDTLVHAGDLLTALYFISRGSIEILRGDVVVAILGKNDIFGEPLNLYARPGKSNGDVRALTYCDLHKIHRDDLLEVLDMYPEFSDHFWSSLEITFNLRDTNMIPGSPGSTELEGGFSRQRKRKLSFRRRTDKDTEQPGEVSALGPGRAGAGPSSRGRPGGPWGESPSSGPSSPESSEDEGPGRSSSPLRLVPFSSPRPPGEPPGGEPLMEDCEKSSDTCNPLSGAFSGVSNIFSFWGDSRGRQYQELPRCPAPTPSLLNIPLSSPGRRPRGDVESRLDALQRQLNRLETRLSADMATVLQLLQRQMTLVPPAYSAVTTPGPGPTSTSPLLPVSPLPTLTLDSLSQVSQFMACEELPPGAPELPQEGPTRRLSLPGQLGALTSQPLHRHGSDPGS

SMILES	IC50 (hERG potassium channel) [nM]	IC50 (SKOV3) [nM]	IC50 (LaPC4) [nM]	IC50 [1] [nM]	IC50 (PEO23) [nM]	IC50 (HCT116) [nM]	IC50 (HCC1806) [nM]	time within which compound reacted with GSH (GSH reactivity assay) [min]	Average Area Ratio with GSH (GSH reactivity assay; [2])	Average Area Ratio without GSH (GSH reactivity assay; 0 h, phosphate buffer)	Average Area Ratio Normalized (GSH reactivity assay; 0 h)	remaining at 1.5 h, 20 μM (GSH reactivity assay; [3]) [%]	half-life at 20 μM (GSH reactivity assay; [4]) [min]	Average Area Ratio with GSH (GSH reactivity assay; 0.33 h, 1 mM GSH)	Average Area Ratio without GSH (GSH reactivity assay; 0.33 h, phosphate buffer)	Average Area Ratio Normalized (GSH reactivity assay; 0.33 h)	Average Area Ratio with GSH (GSH reactivity assay; 0.66 h, 1 mM GSH)	Average Area Ratio without GSH (GSH reactivity assay; 0.66 h, phosphate buffer)	Average Area Ratio Normalized (GSH reactivity assay; 0.66 h)	Average Area Ratio with GSH (GSH reactivity assay; 1 h, 1 mM GSH)	further results
Cl.Cl.N#Cc1ccc(/C=C2/C(=O)/C(=C/c3ccc(C#N)cc3)C23CCN(C(=N)N)CC3)cc1 [RA475, 1,3-bis((E)-4-cyanobenzylidene)-2-oxo-7-azaspiro[3.5]nonane-7-carboximidamide dihydrochloride]	85800	294	2030	420	297	430	113	≤ 30	1.00E+02	1.00E+02	9.10E+01	8	12.2	2.00E+01	9.44E+01	1.93E+01	1.02E+01	9.60E+01	9.62E+00	8.18E+00	IC50 (HCC1395): 464 nM; fold less potent than Up284 ([1]; overall, cell line panel): approximately 3 fold; Average Area Ratio without GSH (GSH reactivity assay; 1 h, phosphate buffer): 9.22E+01; Average Area Ratio Normalized (GSH reactivity assay; 1 h): 8.07E+00; Average Area Ratio with GSH (GSH reactivity assay; 1.5 h, 1 mM GSH): 7.92E+00; Average Area Ratio without GSH (GSH reactivity assay; 1.5 h, phosphate buffer): 9.03E+01; Average Area Ratio Normalized (GSH reactivity assay; 1.5 h): 7.98E+00; half-life at 20 μM (GSH reactivity assay; [5]): > 360 min; remaining at 1.5 h, 20 μM (GSH reactivity assay; [6]): 90%; IC50 (MDA-MB-468): 292 nM; IC50 (HepG2): 241 nM; IC50 (B6-Ova): 70 nM
N#Cc1ccc(/C=C2/C(=O)/C(=C/c3ccc(C#N)cc3)C23CCNCC3)cc1 [Up284, reference compound]	4300	71	510	120	112	110	140	≤ 30	1.00E+02	1.00E+02	8.68E+01	10	12.2	1.76E+01	1.03E+02	1.48E+01	1.18E+01	1.13E+02	9.11E+00	1.20E+01	IC50 (HCC1395; MTT, read-out: IC50): 120 nM; Average Area Ratio without GSH (GSH reactivity assay; 1 h, phosphate buffer): 1.18E+02; Average Area Ratio Normalized (GSH reactivity assay; 1 h): 8.78E+00; Average Area Ratio with GSH (GSH reactivity assay; 1.5 h, 1 mM GSH): 1.30E+01; Average Area Ratio without GSH (GSH reactivity assay; 1.5 h, phosphate buffer): 1.18E+02; Average Area Ratio Normalized (GSH reactivity assay; 1.5 h): 9.58E+00; half-life at 20 μM (GSH reactivity assay; [5]): > 360 min; remaining at 1.5 h, 20 μM (GSH reactivity assay; [6]): 118%; IC50 (MDA-MB-468): 72 nM; IC50 (HepG2): 90 nM; IC50 (B6-Ova): 50 nM
